# ChEMBL document CHEMBL1201862, “PubChem BioAssay data set” (2004)
#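 Grown in 96-well plates, cells were treated for 48 hours with each compound at five concentrations. Insufficient inhibition: endpoint recorded as highest concentration tested. GI50 is the concentration that inhibits growth by half.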 Activity calls are given as the source filed them. Rule as the data show it: active = GI50 up to about 1.1 µM and inactive = higher.
# Tests used:
# Assay in all cases: inhibition of tumour cell growth, NCI panel, 48 h
# [1] = system: SN12C
# [2] = system: SF-295
# [3] = system: UACC-62
# [4] = system: SR
# [5] = system: Malme-3M
# [6] = system: SNB-19
# [7] = system: HOP-92
# [8] = system: COLO 205
# [9] = system: HT-29
# [10] = system: A549
# [11] = system: M14
# [12] = system: KM12
# [13] = system: NCI-H226
# [14] = system: HOP-62
# [15] = system: KM-20L2
# [16] = system: HOP-18
# [17] = system: NCI-H522
# [18] = system: TK-10
# [19] = system: CCRF-CEM
# [20] = system: MDA-MB-435
# [21] = system: SK-MEL-28
# [22] = system: RXF 393
# [23] = system: SK-OV-3
# [24] = system: SK-MEL-5
# [25] = system: HCC 2998
# [26] = system: MCF7
# [27] = system: SK-MEL-2
# [28] = system: ACHN
# [29] = system: OVCAR-8
# [30] = system: Hs-578T
# [31] = system: DLD-1
# [32] = system: M19-MEL
# [33] = system: EKVX
# [34] = system: T47D
# [35] = system: SF-539
# [36] = system: OVCAR-5
# [37] = system: UACC-257
# [38] = system: U-251
# [39] = system: PC-3
# [40] = system: DMS-273
# [41] = system: NCI-H460
# [42] = system: LOX IMVI
# [43] = system: CAKI-1
# [44] = system: SW-620
# [45] = system: NCI/ADR-RES
# [46] = system: SF-268
# [47] = system: DMS-114
# [48] = system: MOLT-4
# [49] = system: SNB-75
# [50] = system: MDA-N
# [51] = system: IGROV-1
# [52] = system: MDA-MB-231
# [53] = system: BT-549
# [54] = system: NCI-H23
# [55] = system: K562
# [56] = system: RXF 631
# [57] = system: XF498
# [58] = system: LXFL 529
# [59] = system: DU-145
# [60] = system: OVCAR-3
# [61] = system: OVCAR-4
# [62] = system: HL-60
# [63] = system: UO-31
# [64] = system: HCT-116
# [65] = system: SNB-78
# [66] = system: 786-0
# [67] = system: HCT-15
# [68] = system: RPMI-8226
# [69] = system: A498
smiles,measurement,setting,value
CC[C@@]1(O)C(=O)OCc2c1c(Cl)c1n(c2=O)Cc2cc3ccccc3nc2-1,GI50,[1],2.7 µM (inactive)
same,GI50,[2],1.22 µM (inactive)
same,GI50,[3],0.528 µM (active)
same,GI50,[4],0.27 µM (active)
same,GI50,[5],4.53 µM (inactive)
same,GI50,[6],2.36 µM (inactive)
same,GI50,[7],7.62 µM (inactive)
same,GI50,[8],5.52 µM (inactive)
same,GI50,[9],2.18 µM (inactive)
same,GI50,[10],2.06 µM (inactive)
same,GI50,[11],2 µM (inactive)
same,GI50,[12],6.38 µM (inactive)
same,GI50,[13],2.14 µM (inactive)
same,GI50,[14],0.733 µM (active)
same,GI50,[15],4.47 µM (inactive)
same,GI50,[16],3.21 µM (inactive)
same,GI50,[17],1.69 µM (inactive)
same,GI50,[18],19 µM (inactive)
same,GI50,[19],0.372 µM (active)
same,GI50,[20],8.95 µM (inactive)
same,GI50,[21],10.4 µM (inactive)
same,GI50,[22],2.52 µM (inactive)
same,GI50,[23],4.24 µM (inactive)
same,GI50,[24],1.75 µM (inactive)
same,GI50,[25],3.4 µM (inactive)
same,GI50,[26],0.708 µM (active)
same,GI50,[27],12.3 µM (inactive)
same,GI50,[28],1.16 µM (inactive)
same,GI50,[29],3.05 µM (inactive)
same,GI50,[30],31.4 µM (inactive)
same,GI50,[31],6.68 µM (inactive)
same,GI50,[32],1.67 µM (inactive)
same,GI50,[33],6.1 µM (inactive)
same,GI50,[34],1.31 µM (inactive)
same,GI50,[35],2.08 µM (inactive)
same,GI50,[36],5.07 µM (inactive)
same,GI50,[37],2.39 µM (inactive)
same,GI50,[38],1.07 µM (active)
same,GI50,[39],4.93 µM (inactive)
same,GI50,[40],0.605 µM (active)
same,GI50,[41],0.383 µM (active)
same,GI50,[42],1.16 µM (inactive)
same,GI50,[43],0.736 µM (active)
same,GI50,[44],1.95 µM (inactive)
same,GI50,[45],1.8 µM (inactive)
same,GI50,[46],1.31 µM (inactive)
same,GI50,[47],1.35 µM (inactive)
same,GI50,[48],0.327 µM (active)
same,GI50,[49],1.84 µM (inactive)
same,GI50,[50],7.24 µM (inactive)
same,GI50,[51],4.08 µM (inactive)
same,GI50,[52],61 µM (inactive)
same,GI50,[53],8.67 µM (inactive)
same,GI50,[54],2.05 µM (inactive)
same,GI50,[55],2.1 µM (inactive)
same,GI50,[56],2.48 µM (inactive)
same,GI50,[57],3.07 µM (inactive)
same,GI50,[58],8.15 µM (inactive)
same,GI50,[59],1.92 µM (inactive)
same,GI50,[60],6.35 µM (inactive)
same,GI50,[61],8.97 µM (inactive)
same,GI50,[62],2.19 µM (inactive)
same,GI50,[63],1.26 µM (inactive)
same,GI50,[64],1.36 µM (inactive)
same,GI50,[65],7.18 µM (inactive)
same,GI50,[66],1.22 µM (inactive)
same,GI50,[67],7.98 µM
same,GI50,[68],1.73 µM (inactive)
same,GI50,[69],2.18 µM (inactive)
COc1c(OC2OC(CO)C(O)C(O)C2O)cc2c(c1OC)-c1ccc(OC)c(=O)cc1[C@@H](NC(C)=O)CC2 (stereo partly drawn),GI50,[1],> 91 µM (inactive)
same,GI50,[2],> 89.7 µM (inactive)
same,GI50,[3],51.5 µM (inactive)
same,GI50,[4],> 100 µM (inactive)
same,GI50,[5],61.5 µM (inactive)
same,GI50,[6],> 100 µM (inactive)
same,GI50,[7],45.3 µM (inactive)
same,GI50,[8],> 100 µM (inactive)
same,GI50,[9],> 100 µM (inactive)
same,GI50,[10],> 100 µM (inactive)
same,GI50,[11],76.4 µM (inactive)
same,GI50,[12],92.7 µM (inactive)
same,GI50,[13],> 100 µM (inactive)
same,GI50,[14],> 100 µM (inactive)
same,GI50,[15],> 100 µM (inactive)
same,GI50,[16],> 100 µM (inactive)
same,GI50,[17],43.8 µM (inactive)
same,GI50,[18],> 100 µM (inactive)
same,GI50,[19],65.2 µM (inactive)
same,GI50,[21],59.4 µM (inactive)
same,GI50,[22],57.4 µM (inactive)
same,GI50,[23],> 100 µM (inactive)
same,GI50,[24],35.2 µM (inactive)
same,GI50,[25],> 93.3 µM (inactive)
same,GI50,[27],35.1 µM (inactive)
same,GI50,[28],> 100 µM (inactive)
same,GI50,[29],> 100 µM (inactive)
same,GI50,[31],> 100 µM (inactive)
same,GI50,[32],60.1 µM (inactive)
same,GI50,[33],> 100 µM (inactive)
same,GI50,[35],64.9 µM (inactive)
same,GI50,[36],> 100 µM (inactive)
same,GI50,[37],> 84.5 µM (inactive)
same,GI50,[38],> 100 µM (inactive)
same,GI50,[40],> 100 µM (inactive)
same,GI50,[41],> 100 µM (inactive)
same,GI50,[42],> 100 µM (inactive)
same,GI50,[43],> 100 µM (inactive)
same,GI50,[44],> 81.8 µM (inactive)
same,GI50,[46],> 56.2 µM (inactive)
same,GI50,[47],44.7 µM (inactive)
same,GI50,[48],> 100 µM (inactive)
same,GI50,[49],25.8 µM (inactive)
same,GI50,[51],83 µM (inactive)
same,GI50,[54],> 100 µM (inactive)
same,GI50,[55],52.1 µM (inactive)
same,GI50,[56],> 100 µM (inactive)
same,GI50,[57],29.3 µM (inactive)
same,GI50,[58],54.1 µM (inactive)
same,GI50,[60],39.5 µM (inactive)
same,GI50,[61],> 100 µM (inactive)
same,GI50,[62],> 70.8 µM (inactive)
same,GI50,[63],> 100 µM (inactive)
same,GI50,[64],> 100 µM (inactive)
same,GI50,[65],61 µM (inactive)
same,GI50,[66],> 100 µM (inactive)
same,GI50,[67],> 100 µM
same,GI50,[68],> 82.2 µM (inactive)
same,GI50,[69],> 100 µM (inactive)
